{"source": "patent US8865758B2", "about": "“Pyrazolo piperidine derivatives as NADPH oxidase inhibitors” (Genkyotex SA, priority 2010, dated 2014)"}
{"target": "T1, NOX (Homo sapiens, UniProt P04839)", "T1 construct": "HL60 differentiation to the neutrophil phenotype was triggered by adding Me2SO; endogenous in cells; host or cells: HL-60 cells differentiated with Me2SO (1.25% v/v, 6 days) to the neutrophil phenotype", "T1 sequence (P04839 2-570 limits assumed)": "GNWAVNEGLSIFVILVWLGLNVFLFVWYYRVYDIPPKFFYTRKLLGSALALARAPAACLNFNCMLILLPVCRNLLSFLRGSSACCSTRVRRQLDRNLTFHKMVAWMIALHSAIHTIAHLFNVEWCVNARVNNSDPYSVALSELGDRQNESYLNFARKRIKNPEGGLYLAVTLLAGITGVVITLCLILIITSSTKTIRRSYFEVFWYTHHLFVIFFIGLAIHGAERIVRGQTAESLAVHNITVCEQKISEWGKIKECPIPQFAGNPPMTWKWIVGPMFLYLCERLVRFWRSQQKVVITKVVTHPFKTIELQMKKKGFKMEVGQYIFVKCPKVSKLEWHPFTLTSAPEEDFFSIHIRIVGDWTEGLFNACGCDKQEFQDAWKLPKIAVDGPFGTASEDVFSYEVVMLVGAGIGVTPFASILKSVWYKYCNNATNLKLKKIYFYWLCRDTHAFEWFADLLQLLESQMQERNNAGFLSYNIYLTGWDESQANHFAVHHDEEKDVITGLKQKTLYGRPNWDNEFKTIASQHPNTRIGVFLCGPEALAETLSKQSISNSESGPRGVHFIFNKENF", "T1 sequence (P13498 1-195 partner)": "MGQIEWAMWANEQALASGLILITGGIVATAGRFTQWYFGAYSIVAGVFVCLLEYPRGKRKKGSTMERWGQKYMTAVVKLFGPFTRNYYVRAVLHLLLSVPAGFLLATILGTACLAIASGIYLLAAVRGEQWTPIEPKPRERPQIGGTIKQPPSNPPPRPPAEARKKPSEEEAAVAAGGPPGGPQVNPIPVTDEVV", "experiment": "Amplex Red measurement of extracellular hydrogen peroxide (NOX activity) in DMSO-differentiated HL60 cells", "format": "cell-based", "settings": "not given", "description": "Human acute myeloid leukemia cell line HL-60 was cultured in RPMI 1640 (Invitrogen) supplemented with 10% heat-inactivated calf serum, 2 mM glutamine, 100 U/mL penicillin (Sigma), and 100 μg streptomycin (Sigma) at 37° C. under a humidified atmosphere of 5% CO2. HL60 differentiation to the neutrophil phenotype was triggered by adding Me2SO (final concentration 1.25% v/v for 6 days) to the culture medium.\nExtracellular hydrogen peroxide was measured using Amplex UltraRed (Molecular Probes). Cells were trypsinized (1× Trypsin-EDTA), collected by centrifugation, and resuspended in HBSS supplemented with 1% glucose. Cells were seeded into black 96-well plates at a density of 50′000 cells in 200 μl testing buffer (HBSS 1% glucose containing 0.005 U/mL horseradish peroxidase (Roche) and 50 μM Amplex Red in the presence or absence of compounds according to the invention. As a control, DPI was included at a final concentration of 10 μM The plates were placed in the fluorescent Optima Fluorescent plate reader and kept at 37° C. during 20 min. Fluorescence was measured for […] with excitation and emission wavelengths of 544 nm and 590 nm respectively. NOX activities were expressed as % of the activity in control cells. Residual activity of DPI-treated cells was usually <10%. […]\nThe Table 3 below summarizes the IC50 of NOX activity as measured by Amplex Red using DMSO-differentiated HL60 cells as described above: […]", "units": {"IC50": "µM"}}
{"smiles": "O=c1c2c([nH]n1Cc1ccccc1)CCN(Cc1ccc(Cl)cc1)C2", "note": "[Compound 9, 2-benzyl-5-(4-chlorobenzyl)-1,2,4,5,6,7-hexahydro-3H-pyrazolo[4,3-c]pyridin-3-one]", "IC50": "< 5"}
{"smiles": "CN1N=C2CCN(Cc3ccc(Cl)cc3)CC2(Cc2cccnc2)C1=O", "note": "(stereo not shown) [Compound 87, 5-(4-chlorobenzyl)-2-methyl-3a-(pyridin-3-ylmethyl)-2,3a,4,5,6,7-hexahydro-3H-pyrazolo[4,3-c]pyridin-3-one]", "IC50": "< 5"}
{"smiles": "O=c1c2c([nH]n1-c1ccc(F)cc1Cl)CCN(Cc1ccccc1)C2", "note": "[Compound 2, 5-benzyl-2-(2-chloro-4-fluorophenyl)-1,2,4,5,6,7-hexahydro-3H-pyrazolo[4,3-c]pyridin-3-one]", "IC50": "< 5"}
{"smiles": "Cc1ccc(S(=O)(=O)N2CCc3[nH]n(Cc4cn5ccccc5n4)c(=O)c3C2)cc1", "note": "[Compound 103, 2-(imidazo[1,2-a]pyridin-2-ylmethyl)-5-[(4-methylphenyl)sulfonyl]-1,2,4,5,6,7-hexahydro-3H-pyrazolo[4,3-c]pyridin-3-one]", "IC50": "< 5"}
{"smiles": "O=c1c2c([nH]n1Cc1ccccc1)CCN(Cc1ccc(Cl)nc1)C2", "note": "[Compound 97, 2-benzyl-5-[(6-chloropyridin-3-yl)methyl]-1,2,4,5,6,7-hexahydro-3H-pyrazolo[4,3-c]pyridin-3-one]", "IC50": "< 5"}
{"smiles": "Cn1[nH]c2c(c1=O)CN(Cc1ccccc1)CC2", "note": "[Compound 8, 5-benzyl-2-methyl-1,2,4,5,6,7-hexahydro-3H-pyrazolo[4,3-c]pyridin-3-one]", "IC50": "< 5"}
{"smiles": "O=c1c2c([nH]n1Cc1ccc(Cl)cc1)CCN(Cc1ccccc1)C2", "note": "[Compound 1, 5-benzyl-2-(4-chlorobenzyl)-1,2,4,5,6,7-hexahydro-3H-pyrazolo[4,3-c]pyridin-3-one]", "IC50": "< 5"}
{"smiles": "O=c1c2c([nH]n1-c1cccc(OCc3ccccc3)c1)CCN(Cc1ccccc1)C2", "note": "[Compound 3, 5-benzyl-2-[3-(benzyloxy)phenyl]-1,2,4,5,6,7-hexahydro-3H-pyrazolo[4,3-c]pyridin-3-one]", "IC50": "< 5"}
{"smiles": "CN1CCC(n2[nH]c3c(c2=O)CN(Cc2ccc(Cl)nc2)CC3)CC1", "note": "[Compound 96, 5-[(6-chloropyridin-3-yl)methyl]-2-(1-methylpiperidin-4-yl)-1,2,4,5,6,7-hexahydro-3H-pyrazolo[4,3-c]pyridin-3-one]", "IC50": "< 5"}
{"smiles": "CS(=O)(=O)N1CCc2[nH]n(Cc3ccccc3)c(=O)c2C1", "note": "[Compound 102, 2-benzyl-5-(methylsulfonyl)-1,2,4,5,6,7-hexahydro-3H-pyrazolo[4,3-c]pyridin-3-one]", "IC50": "< 5"}
{"smiles": "O=c1c2c([nH]n1-c1ccc(F)cc1Cl)CCNC2", "note": "[Compound 4, 2-(2-chloro-4-fluorophenyl)-1,2,4,5,6,7-hexahydro-3H-pyrazolo[4,3-c]pyridin-3-one]", "IC50": "< 5"}
{"smiles": "O=c1c2c([nH]n1Cc1ccccc1)CCN(Cc1ccccc1)C2", "note": "[Compound 12, 2,5-dibenzyl-1,2,4,5,6,7-hexahydro-3H-pyrazolo[4,3-c]pyridin-3-one]", "IC50": "< 5"}
{"smiles": "COc1cccc(-n2[nH]c3c(c2=O)CN(Cc2ccccc2)CC3)c1", "note": "[Compound 24, 5-benzyl-2-(3-methoxyphenyl)-1,2,4,5,6,7-hexahydro-3H-pyrazolo[4,3-c]pyridin-3-one]", "IC50": "< 5"}
{"tested_on": "NOX", "experiment": "Nitroblue tetrazolium (NBT) superoxide test in cells", "format": "cell-based, human", "settings": "DPI 10 μM, usually", "description": "Human microglia cell line (HMC3, human microglia clone 3) (Janabi et al., 1995, Neurosci. Lett. 195:105) were cultured in MEM (Eagle's minimum essential medium) containing 10% FBS with 50 U/ml penicillin G sodium 50 μg/ml streptomycin sulfate, and incubated at 37° C. for 24 hours. IFN-γ (human IFN-γ, Roche. 11 040 596 001) was added to the culture medium for a final concentration of 10 ng/ml 24 h, before detection of O2^− formation. […]\nIntracellular and extracellular superoxide was measured by a colorimetric technique using a quantitative nitroblue tetrazolium (NBT) test. SOD-inhibitable conversion of NBT to formazan, a fine blue precipitate, in the presence of superoxide anion was measured using Fluostar Optima spectrometer (BMG labtech). […] The absorption was measured at 630 nm. For calculation, the absorbance at 630 nm was normalized for each individual well. […] NOX activities were expressed as % of the activity in control cells. […]", "units": {"Residual activity of DPI-treated cells (NOX activity as % of control cells)": "%"}}
{"smiles": "c1ccc([I+]c2ccccc2)cc1", "note": "[DPI, Diphenyl-iodonium]", "Residual activity of DPI-treated cells (NOX activity as % of control cells)": "< 10"}
{"tested_on": "NOX", "experiment": "Chemiluminescence (luminol) ROS measurement in cells", "format": "cell-based, human", "settings": "usually", "description": "ROS was measured using the chemiluminescent probe luminol. Cells were cultured and plated as for Amplex Red except that the Amplex Red agent was replaced by 10 μg/mL luminol (Sigma 09235). Light emission was recorded continuously at 37° C. for 60 minutes using the luminescence function of the FluoStar Optima fluorescent plate reader. The mean of the four blank values was subtracted from each corrected value for each time point. NOX activities were expressed as % of the activity in control cells. Residual activity of DPI-treated cells was usually <10%.", "units": {"Residual activity of DPI-treated cells (NOX activity as % of control cells)": "%"}}
{"smiles": "c1ccc([I+]c2ccccc2)cc1", "note": "[DPI, Diphenyl-iodonium]", "Residual activity of DPI-treated cells (NOX activity as % of control cells)": "< 10"}
{"tested_on": "NOX", "experiment": "H2DCF-DA fluorescence in TGF-β stimulated HUVEC", "format": "cell-based, human", "settings": "usually", "description": "HUVEC are cultured in endothelial basal medium supplemented with hydrocortisone (1 μg/mL, Calbiochem), bovine brain extract (12 μg/mL), gentamicin (50 μg/mL, Calbiochem), amphotericin B (50 ng/mL, Calbiochem EGF (10 ng/mL, and 10% FCS until the fourth passage. When the fifth passage was started, cells were cultured with a lower concentration of FCS (2%) in the absence of EGF, if not indicated otherwise. All experiments were done with cells of the fifth passage. The cells were incubated with OxLDL (oxidized low-density lipoprotein) or its buffer as control for 24 h, before detection of O2^− formation.\nHUVEC were plated on coverslips and made quiescent overnight in 0.5% BSA before stimulation with TGF-β. Cells were loaded for 10 minutes with 5 μM CM-H2DCF-DA in phenol-red-free medium in the dark and then treated with TGF-β (R&D Systems) in the presence or absence of compounds according to the invention. Cells were then visualized by immunofluorescence microscopy after fixation and staining of the nuclei with DAPI or examined live using confocal microscopy. DCF fluorescence was visualized at an excitation wavelength of 488 nm and emission at 515 to 540 nm. […] For calculation, the absorbance at […] was normalized to absorbance at […] for each individual well. […] NOX activities were expressed as % of the activity in control cells. […]", "units": {"Residual activity of DPI-treated cells (NOX activity as % of control cells)": "%"}}
{"smiles": "c1ccc([I+]c2ccccc2)cc1", "note": "[DPI, Diphenyl-iodonium]", "Residual activity of DPI-treated cells (NOX activity as % of control cells)": "< 10"}
